According to patent US20250212877A1, “SUGAR-CONTAINING COMPOSITION FOR FOLIAR SPRAY AND METHOD OF USING THE SAME” (priority 2022, published 2025):

Test system: tomato leaf
Assay: Foliar absorption rate of sugar, Congo red method, tomato leaf
Conditions: summary of TABLE 1 over tomato and strawberry leaves; no adjuvant
From the text: In glass greenhouse, cucumber (Korean White, made by Farm Hannong, Korea) and tomato (Seogwangtomato, made by Farm Hannong, Korea) seeds were sown to raise plants. The young plants were transplanted to a vinyl cup having a diameter of 10 cm and cucumber was cultivated up to 4.5-leaf stage and tomato was cultivated up to 6.5-leaf stage. Strawberry young plants (KINGSBERRY) were given from strawberry laboratory, put in each cup pot having a diameter of 10 cm and cultivated up to 6 to 8-leaf stage in the greenhouse. […] Acetonitrile and nonionized water were mixed at 3:7 (volume/volume) to prepare a 30% acetonitrile aqueous solution, 8 ml was put into a test tube having an outer diameter of 32 mm and a length of 200 mm and the test tube was closed with a rubber lid. The leaves sprayed with the sugar aqueous solution was picked, put and cleaned by reverse shaking at the speed of 60 rpm for 2 minutes. The cleaning solution was analyzed by high-performance liquid chromatography (HPLC) to quantify Congo red and sugar, and the sugar absorption rate was calculated by the following Equation 1.

Absorption by tomato leaves and strawberry leaves, maximum: ≤ 1.3%
Structure (SMILES): OC[C@H]1O[C@@](CO)(O[C@H]2O[C@H](CO)[C@@H](O)[C@H](O)[C@H]2O)[C@@H](O)[C@@H]1O [sucrose]
